Patent EP1081232A1, “Novel target for antifungals” (K.U. LEUVEN RESEARCH & DEVELOPMENT, priority 1999, dated 2001)

System: tps2Δ strains
Experiment: Sensitivity towards antifungals, growth curves in liquid medium in microtiter wells (bioscreen C)
Format: cell-based, Saccharomyces cerevisiae
Details: 10^-6 M ketoconazole, 33°C, cells pre-grown to stationary phase, OD 600 nm, after 24 hours
Procedure: Sensitivity towards the antifungals itraconazole and ketoconazole was tested in microtiter wells using a bioscreen C apparatus (Life sciences, Labsystems) and on solid culture media.
Yeast cells were pre-grown in YPglucose medium till stationary phase. The cells were diluted to a initial optical density of 0.05 OD and 300 µl of cell suspension was added to each well of a microtiter plate. Three µl of the correct stock solution of the compound, dissolved in DMSO, were added to each well. For the control reactions, only DMSO was added. The microtiter plate was placed in the bioscreen C apparatus and were incubated at 33°C or 37°C, with medium intensity shaking (30 seconds shaking per minute). The optical density at 600 nm was measured every 30 min.
The effect of the addition of 10^-7 M Itraconazole and 10^-6 Ketoconazole on the growth curve of prototrophic tps2Δ strain PVD32 and wild type strain PVD23 at 33°C is shown in Figures 3 and 4 respectively.
The effect of different concentrations of itraconazole on the growth at 33°C of the diploid wild type strain (PVD190) and the diploid heterozygous tps2Δ strain PVD191 was tested and the results are presented in Figure 5.

## CC(=O)N1CCN(c2ccc(OCC3COC(Cn4ccnc4)(c4ccc(Cl)cc4Cl)O3)cc2)CC1 (stereo not shown) [ketoconazole]
  effect on growth: no detectable growth
